Data taken from patent publication US20210251934A1, “NOVEL COMPOSITIONS FOR THE TREATMENT OF INFLAMMATORY DISEASES” (SystaMedic Inc., priority 2018, published 2021).

Tested on: formalin induced pain responses
Assay: Formalin Test (formalin induced pain responses, flinches and licks)
Assay type: in vivo, rat
Details: late phase 20 to 30 min after formalin
Description: Evaluation of analgesic and anti-inflammatory effects of compositions of claim 1 (See Hunskaar S and Hole K. (1987) Pain 30(1):103-14.)
In the Formalin Test a 5% solution of formaldehyde is injected subcutaneously to rat paw which produces a biphasic pain response over a test period of 60 minutes: an early phase lasting the first 5 min and a late phase lasting from 20 to 30 min after the injection of formalin. The early phase is due to a direct effect of […] on nociceptors and the late phase seems to be an inflammatory response with inflammatory pain that can be inhibited by anti-inflammatory drugs. For determining effects of compositions on these response phases two measurements were taken with three minutes interval for determining the number of flinches and licks per minute.
The treatments administered consists of (Human equivalent dose)
The above ingredients were suspended in 2.5 ml saline solution to feed by gavage one hour before injection of formalin and pain response was measured for 45 minutes. The data were collected in duplicate and average was taken.

CC(=O)Oc1ccccc1C(=O)O [Aspirin]
percent inhibition in formalin induced pain responses (human equivalent dose 100 mg): 30%

O[C@H]1[C@H](O)[C@@H](O)[C@H](O)[C@@H](O)[C@H]1O [Inositol]
percent inhibition in formalin induced pain responses (human equivalent dose 31.5 mg): 12%
percent inhibition in formalin induced pain responses (human equivalent dose 60.2 mg): 30%
percent inhibition in formalin induced pain responses (human equivalent dose 125 mg): 34%
percent inhibition in formalin induced pain responses (human equivalent dose 250 mg): 40%
percent inhibition in formalin induced pain responses (human equivalent dose 500 mg): 85%

CC(=O)Nc1ccc(O)cc1 [Paracetamol]
percent inhibition in formalin induced pain responses (human equivalent dose 500 mg): 50%
percent inhibition in formalin induced pain responses (human equivalent dose 1000 mg): 70%

C=C(C)[C@@H]1CCC(C)=C[C@H]1c1c(O)cc(CCCCC)cc1O [Cannabidiol (CBD), Cannabidiol]
percent inhibition in formalin induced pain responses (human equivalent dose 3 mg): 8%
percent inhibition in formalin induced pain responses (human equivalent dose 6.25 mg): 40%
percent inhibition in formalin induced pain responses (human equivalent dose 12.5 mg): 40%
percent inhibition in formalin induced pain responses (human equivalent dose 25 mg): 90%
percent inhibition in formalin induced pain responses (human equivalent dose 50 mg): 90%
